Assay results from patent US8058243B2, “Method for treating a brain cancer with ifenprodil” (HSC Research and Development Limited Partnership, priority 2006, dated 2011).
Counter-ions that a name gives are not always drawn. Like-named read-outs stand apart in the source and are kept apart here.

Test system: murine neural precursor cells (neurosphere cultures)
Experiment: HTS of LOPAC library against secondary neurosphere cultures, MTT proliferation assay at 3 μM, day 7 (z score, P value)
Assay type: cell-based, mouse
[1] = LOPAC primary screen, neurosphere MTT proliferation, 3 μM, day 7
[2] = yes/no: significantly inhibited neurosphere proliferation (P<0.01) in primary screen
[3] = LOPAC library screen, 3 μM, MTT, secondary neurosphere cultures, day 7
[4] = yes = significantly inhibited neurosphere proliferation (P<0.01) in the primary screen
[5] = primary LOPAC screen, 3 μM, MTT, neurosphere proliferation
[6] = yes/no: significantly inhibited neurosphere proliferation in the primary screen
[7] = yes/no: significantly inhibited neurosphere proliferation in primary screen
[8] = yes/no: significantly inhibited neurosphere proliferation (P<0.01) in the primary screen
[9] = LOPAC library screen at 3 μM, secondary neurosphere cultures, MTT
[10] = LOPAC screen, neurosphere MTT proliferation, 3 μM, day 7
[11] = LOPAC library screen, 3 μM, MTT, neurosphere cultures

| SMILES | Z Score | Z score [1] | Activity [2] | other results |
| --- | --- | --- | --- | --- |
| CC[C@H](C)[C@H]1O[C@]2(CC[C@@H]1C)C[C@@H]1C[C@@H](C/C=C(\C)[C@@H](O[C@H]3C[C@H](OC)[C@@H](O[C@H]4C[C@H](OC)[C@@H](O)[C@H](C)O4)[C@H](C)O3)[C@@H](C)/C=C/C=C3\CO[C@@H]4[C@H](O)C(C)=C[C@@H](C(=O)O1)[C@]34O)O2 [Ivermectin] | 1.507 | 1.507 | no |  |
| CC[C@@H]1C(=O)OC[C@@H]1Cc1cncn1C.Cl [(+)-Pilocarpine hydrochloride] |  | −1.548 |  | Z Score [3]: −1.548; Activity [4]: no |
| NCC(O)(CS(=O)(=O)O)c1ccc(Cl)cc1 (stereo not shown) [2-Hydroxysaclofen] |  | −1.624 |  | Z Score [3]: −1.624; Activity [4]: no |
| CC(=O)NCCc1c[nH]c2ccccc12 [N-Acetyltryptamine] | 1.02 |  |  | Z score [5]: 1.020; Activity [6]: no |
| CC(=O)[C@]1(O)Cc2c(O)c3c(c(O)c2[C@@H](O[C@H]2C[C@H](N)[C@H](O)[C@H](C)O2)C1)C(=O)c1ccccc1C3=O [Idarubicin] |  | −11.274 |  | Z Score [3]: −11.27; Activity [4]: yes |
| O=S(=O)(O)C1CCNCC1 [Piperidine-4-sulphonic acid] |  |  |  | Z Score (168 h, 3 µM): −0.4238; Z score (168 h, 3 µM): −0.424; Activity [7]: no |
| N#CC(=C(/N)Sc1ccccc1N)/C(C#N)=C(/N)Sc1ccccc1N [U0126] | 0.711 |  |  | Z score [5]: 0.711; Activity [6]: no |
| CNC(=O)[C@H]1O[C@@H](n2cnc3c(N)ncnc32)[C@H](O)[C@@H]1O [5′-N-Methyl carboxamidoadenosine] | −2.582 | −2.582 |  | Activity [8]: yes |
| CCCN(CC1CC1)c1nc(C)nc(Nc2c(Cl)cc(Cl)cc2Cl)c1Cl [NBI 27914] | 0.1345 | 0.134 | no |  |
| Nc1nc2ccc(OC(F)(F)F)cc2s1 [Riluzole] |  | −1.033 |  | Z Score [9]: −1.033 |
| O=c1cc(-c2ccc(O)cc2)oc2cc(O)cc(O)c12 [Apigenin] |  |  |  | Z Score (168 h, 3 µM): 1.824; Z score (168 h, 3 µM): 1.824; Activity [6]: no |
| O=C(O)C1CN(CCCP(=O)(O)O)CCN1 (racemic) [(±)-CPP] |  |  | no | Z score [10]: 0.321 |
| Cl.O=C(CCCN1CCC2(CC1)C(=O)N(CCc1ccc(N=C=S)cc1)CN2c1ccccc1)c1ccc(F)cc1 |  | −0.415 |  | Z Score [9]: −0.4152; Activity [4]: no |
| CC(C)NC[C@@H](O)c1ccc(O)c(O)c1.O=C(O)C(O)C(O)C(=O)O [S(+)-Isoproterenol (+)-bitartrate] | −0.2963 |  |  |  |
| O=S(=O)(c1cccc2c(I)cccc12)N1CCCNCC1 [ML-7] | −11.27 | −11.274 |  | Activity [8]: yes |
| Cl.OCc1c[nH]cn1 [4-Imidazolemethanol hydrochloride] | −2.077 | −2.077 | no |  |
| Cn1c(=O)c2c(nc(C=Cc3cccc(Cl)c3)n2C)n(C)c1=O [8-(3-Chlorostyryl)caffeine] |  |  | no | Z Score (168 h, 3 µM): −1.214; Z score (168 h, 3 µM): −1.214 |
| CCCCCCCCCCCCCCCCCC(=O)NCC(COP(=O)([O-])OCC[N+](C)(C)C)OCC (racemic) [rac-2-Ethoxy-3-octadecanamido-1-propylphosphocholine] |  | −1.112 | no | Z Score [9]: −1.112 |
| CC[N+](CC)(CC)CCOc1cccc(OCC[N+](CC)(CC)CC)c1OCC[N+](CC)(CC)CC [Gallamine triethiodide] |  | −0.916 | no | Z Score [9]: −0.9156 |
| CC(C)NCC(O)c1ccc(O)c(O)c1.Cl (single isomer, unassigned; (-)) [(−)-Isoproterenol hydrochloride] |  | 0.237 | no | Z Score [11]: 0.2367 |
| CN1[C@@H]2CC[C@H]1C[C@@H](OC(c1ccccc1)c1ccccc1)C2 [Benztropine mesylate] |  | −3.749 |  | Z Score [3]: −3.749; Activity [8]: yes |
| Cc1nnc2ccc(-c3cccc(C(F)(F)F)c3)nn12 [3-Methyl-6-(3-[trifluoromethyl]phenyl)-1,2,4-triazolo[4,3-b]pyridazine] | 0.09095 | 0.091 |  | Activity [4]: no |
| Cl.NC1CCN(c2cccc(Cl)n2)CC1 [SR 57227A] | −1.4 | −1.400 |  | Activity [7]: no |
| N=C1Sc2ccccc2C2=NCCCN12 [PD 404,182] | 0.09055 | 0.091 |  | Activity [7]: no |
| Cl.Cl.Cl.Ic1ccc(N2CCN(Cc3c[nH]c4ncccc34)CC2)cc1 [L-750,667 trihydrochloride] | −1.184 | −1.184 |  | Activity [8]: no |

| SMILES | Z Score | Z score [1] | Activity [2] | other results |
| --- | --- | --- | --- | --- |
| COc1cc2nc(N3CCN(C(=O)OCc4ccccc4)[C@H](C(=O)NC(C)(C)C)C3)nc(N)c2cc1OC [L-765,314] | −0.8308 | −0.831 |  | Activity [8]: no |
| CCCC(=O)NCCc1c2n(c3ccc(OC)cc13)Cc1ccccc1-2 [IIK7] | −0.3544 | −0.354 | no |  |
| CCn1c(=O)[nH]c2cc(Cl)c(Cl)cc21 [DCEBIO] | 0.8099 |  | no | Z score [10]: 0.810 |
| O=c1[nH]c(=O)n([C@H]2C[C@H](O)[C@@H](CO)O2)cc1/C=C/Br [(E)-5-(2-Bromovinyl)-2′-deoxyuridine] |  |  | no | Z Score (168 h, 3 µM): −2.123; Z score (168 h, 3 µM): −2.123 |
| CCS(=O)(=O)Nc1cccc(C(=C2CCCCC2)c2cnc[nH]2)c1 [A-315456] | 0.3628 | 0.363 |  | Activity [4]: no |
| CN1CCC(c2c[nH]c3ccc(O)cc23)CC1.O=C(O)/C=C\C(=O)O [BRL 54443 maleate] | 0.3378 |  | no | Z score [10]: 0.338 |
| Cc1cn([C@H]2C[C@H](N=[N+]=[N-])[C@@H](CO)O2)c(=O)[nH]c1=O [3′-Azido-3′-deoxythymidine] |  | −5.023 |  | Activity: yes; Z Score [3]: −5.023 |
| O=C(C1CCCCC1)N1CC(=O)N2CCc3ccccc3C2C1 (stereo not shown) [Praziquantel] |  | −2.296 |  | Z Score [3]: −2.296; Activity [4]: no |
| Cc1cc(N)c2ccccc2[n+]1CCCCCCCCCC[n+]1c(C)cc(N)c2ccccc21 [Dequalinium (29), Dequalinium, reference compound] |  | −9.540 |  | Z Score [3]: −9.54; Activity [8]: yes |
| CC(=O)N[C@H](C(=O)O)C(C)(C)SN=O (racemic) [S-Nitroso-N-acetylpenicillamine] |  | −1.645 |  | Z Score [3]: −1.645; Activity [4]: no |
| N#CC(C#N)=C(N)/C(C#N)=C/c1cc(O)c(O)c(O)c1 [Tyrphostin 51] | −0.9177 |  |  | Z score [5]: −0.918; Activity [6]: no |
| CN1C[C@@H](NS(=O)(=O)N(C)C)C[C@@H]2c3cccc4c3c(cn4C)C[C@H]21 [Mesulergine hydrochloride] |  | −2.160 |  | Z Score [3]: −2.16; Activity [8]: no |
| Cn1cc(C(=O)OCC2CCN(CCNS(C)(=O)=O)CC2)c2ccccc21 [GR 113808] | 0.992 | 0.992 |  | Activity [8]: no |
| C[N+](C)(C)CC=O [Betaine aldehyde chloride] |  |  |  | Activity: no; Z Score (168 h, 3 µM): −0.07007; Z score (168 h, 3 µM): −0.070 |
| CN1C(C(=O)Nc2ccccn2)=C(O)c2ccccc2S1(=O)=O [Piroxicam] |  | 0.253 |  | Z Score [11]: 0.2527; Activity [4]: no |
| CC(C)NC[C@@H](O)c1ccc(O)c(O)c1.O=C(O)C(O)C(O)C(=O)O [S(+)-Isoproterenol(+)-bitartrate] |  | −0.296 | no |  |
| O=[N+]([O-])c1cccc2cn[nH]c12 [7-Nitroindazole (34), 7-Nitroindazole, reference compound] | −1.349 | −1.349 |  | Activity [4]: no |
| COC(=O)C(C)(N)Cc1ccc(O)cc1.Cl (racemic) [alpha-Methyl-DL-tyrosine methyl ester hydrochloride] |  |  |  | Z Score (168 h, 3 µM): 0.3703; Z score (168 h, 3 µM): 0.370; Activity [8]: no |
| C=CCN1CC[C@]23c4c5ccc(O)c4O[C@H]2/C(=N/N=C2\CC[C@@]4(O)[C@H]6Cc7ccc(O)c8c7[C@@]4(CCN6CC=C)[C@H]2O8)CC[C@@]3(O)[C@H]1C5 [Naloxonazine dihydrochloride] | −0.6061 | −0.606 |  | Activity [8]: no |
| c1ccc2c(c1)CCCC2C1=NCCN1 (stereo not shown) [Tetrahydrozoline hydrochloride] |  |  |  | Z Score [9]: −0.4693; Z score [5]: −0.469; Activity [6]: no |
| NCCCC(=O)O [GABA] | −0.4389 |  |  | Z score [5]: −0.439; Activity [6]: no |
| CN1CCc2cc(O)cc3c2[C@H]1Cc1ccc(O)c(O)c1-3 [R(−)-2,10,11-Trihydroxyaporphine] |  | −3.309 |  | Activity [8]: yes |
| C[C@@]12C(=O)OC(=O)[C@]1(C)[C@H]1CC[C@@H]2O1 [Cantharidin] | −0.5781 |  | no | Z score [10]: −0.578 |
| O=P(O)(O)C(Cl)(Cl)P(=O)(O)O [Clodronic acid] |  |  | no | Z Score [9]: −0.1842; Z score [10]: −0.184 |
| O=C(O)/C=C\C(=O)O.O=C(O)/C=C\C(=O)O.c1cc(CN2CCCCC2)cc(OCCCNc2nc3ccccc3s2)c1 [SKY 95282 dimaleate] | 0.4241 |  |  |  |
